The subject of assay [1] is CD4+ cells in the inflamed colonic mucosa. As to the kind of experiment: Annexin-V mediated detection of apoptosis in CD4+ cells of colonic mucosa. It counts as in vivo, SCID mice. The following applies: time zero reference 1.8±0.2%. How it is done: (§1) PDT was performed with a photosensitizing agent (δ-ALA) dose of 15 mg/kg, administered 3 hours before the illumination with the energy dose of 10 J/cm^2 per gastrointestinal tract tissue.
For Annexin-V mediated detection of apoptosis mice were sacrificed 4 or 20 hours after low dose PDT later. Untreated inflamed mice were also sacrificed and were considered as the time zero reference. In order to extract cells from the colonic mucosa, treated portions of the colons, or equivalent portions in untreated mice, were collected, cut into small pieces and individually incubated for 20 minutes at room temperature under constant agitation in a PBS solution containing 5 mM EDTA. […] Cells were then analyzed through a FACscan flowcytometer (Becton Dickinson), once in the absence of propidium iodide (PI) and once in the presence of PI in order to identify population of viable cells. The percentage of Annexin-V^+ cells within the CD4^+ population was finally calculated based on a forward and side scatter gated population consisting of viable cells (>98% of PI negative cells) and containing the most percentage of CD4^+ cells (>80%).

The test system of assay [2] is CD4+ cells in the colonic mucosa. As to the kind of experiment: Anti-CD4 immunostaining of treated colonic mucosa. In kind it is in vivo, SCID mice. The note with it: low dose PDT, 3 days after PDT, compared to DC mice. The method, then: as §1
Mice were monitored by colonoscopy at day 3 and weeks 1, 2, 3 and 4 post PDT treatment. In addition to parameters investigated in example 1, CD4 immunostaining and apoptosis detection were performed.
For anti-CD4 immunostaining, frozen sections were extensively dried, fixed with 100% acetone at 4° C. and rehydrated in PBS. Sections were then blocked for 20 minutes with a PBS solution containing 0.1% BSA (Sigma-Aldrich Inc., St-Louis, USA) and 0.5% NMS. CD4 detection was performed by incubation of the sections for 1 hour with a cell culture supernatant originating from an hybridoma secreting rat anti-mouse CD4 (clone H129.19). After washing with PBS, an Alexa Fluor 488-conjugated goat anti-rat IgG at a final concentration of 5 ng/ml in PBS 0.1% BSA, 1% NMS was used as secondary antibody and incubated for 45 minutes before two last PBS washings. All incubations were done at room temperature unless specified otherwise.

For `NCC(=O)CCC(=O)O` [δ-ALA, 5-aminolevulinic acid], the “percentage of Annexin V+ cells in the CD4+/PI- population” value in assay [1] (4 hours after low dose PDT, P=0.0043) was found to be 3.0±0.3%; in assay [1] (20 hours after low dose PDT, P=0.0012), 4.6±0.5%. Also, the “number of CD4+ cells in the treated colonic mucosa” value in assay [2] is recorded as “obvious diminution in the number of CD4^+ cells”.

The values are drawn from patent US20100087534A1, “Use of a Photosensitizing Agent in the Treatment or Prevention of an Inflammation-Associated Disorder in the Gastrointestinal Tract of a Mammal” (priority 2005, published 2010).
